Patent publication US4987067A, “Maltooligosaccharide derivatives and reagents for determination of amylase activity” (Yoshitomi Pharmaceutical Industries, Ltd., priority 1987, dated 1991)

Tests used:
α-amylase = test: Change in absorbance per minute at 400 nm with sample serum (indication of amylase activity); assay type: biochemical; details: 3 ml reagent added to sample serum, 5-6 minutes at 37° C.
Experimental: (§1) With this reagent, variation in absorbance was determined in a similar manner to Example 2. A 3 ml quantity of the reagent was added to […] of sample serum and allowed to stand for 5-6 minutes at 37° C. and thereafter, the variation in absorbance at 400 nm was determined and the change in absorbance per one minute which is an indication of amylase activity was calculated The variation in blank value of the reagent with time and the change in absorbance per minute are shown in Table 2 below.

[1] = tested on: α-Glucosidase, β-Glucosidase, Glucoamylase; test: Variation in blank value of reagent with time (absorbance at 400 nm), reagent with α-glucosidase, β-glucosidase and glucoamylase; assay type: biochemical; details: Table 2, glucoamylase added (10 U/ml), substrate 2 mM; for Absorbance at 400 nm (blank value), on reaction initiation: pH 7.0, α-glucosidase 80 U/ml, β-glucosidase 10 U/ml; for Absorbance at 400 nm (blank value), after 10 min. / Absorbance at 400 nm (blank value), after 20 min. / Absorbance at 400 nm (blank value), after 30 min.: pH 7.0
Experimental: as §1
The reagent of the following composition was prepared:
(§2) Substrate (see Table 2) 2 mM

[2] = tested on: α-Glucosidase, β-Glucosidase; test: Variation in blank value of reagent with time (absorbance at 400 nm), reagent with α-glucosidase and β-glucosidase; assay type: biochemical; details: substrate 2 mM
Experimental: Reagents having the following composition were prepared.
50 mM Good Buffer (pH 7.0)
Substrate (see Table 1) 2 mM
Immediately after the preparation of the reagents, after 10 minutes, 20 minutes and 30 minutes, the absorbance of each reagent at 400 nm was determined (3 ml of reagent sample; 37° C.).
The reagent having the following composition was prepared:
as §2

[3] = Dissolution of substrate in the reagents of Example 3; assay type: physicochemical; details: reagents of Example 3 without their substrates, 50 mM Good Buffer pH 7.0; substrate 2 mM in Example 3
Source text: An attempt was made to use the substrates listed below instead of the substrates in Example 3, but the former substrates were not dissolved in the reagents in Example 3 (excluding substrates in Example 3).

[4] = Table 1, 50 mM Good Buffer pH 7.0, α-glucosidase 80 U/ml, β-glucosidase 10 U/ml, 37° C., immediately after preparation
[5] = Table 1, pH 7.0, α-glucosidase 80 U/ml, β-glucosidase 10 U/ml, 37° C.
[6] = Table 2, no glucoamylase, pH 7.0

CC(=O)CC1OC[C@H]2O[C@H](O[C@H]3[C@H](O)[C@@H](O)[C@@H](O[C@H]4[C@H](O)[C@@H](O)[C@@H](O[C@H]5[C@H](O)[C@@H](O)[C@@H](O[C@H]6[C@H](O)[C@@H](O)[C@H](Oc7ccc([N+](=O)[O-])cc7Cl)O[C@@H]6CO)O[C@@H]5CO)O[C@@H]4CO)O[C@@H]3CO)[C@H](O)[C@@H](O)[C@@H]2O1 (stereo partly drawn) [Example 2, 3-ketobutylidene 2-chloro-4-nitrophenyl-β-maltopentaoside]
Change in absorbance (α-amylase; glucoamylase added (10 U/ml)): 0.157 per minute
Change in absorbance (α-amylase; no glucoamylase): 0.123 per minute
Absorbance at 400 nm (blank value), on reaction initiation [1]: 0.051
Absorbance at 400 nm (blank value), after 10 min. [1]: 0.051
Absorbance at 400 nm (blank value), after 20 min. [1]: 0.051
Absorbance at 400 nm (blank value), after 30 min. [1]: 0.052
Absorbance at 400 nm (blank value), on reaction initiation [2, 4]: 0.049
Absorbance at 400 nm (blank value), after 10 min. [2, 5]: 0.049
Absorbance at 400 nm (blank value), after 20 min. [2, 5]: 0.049
Absorbance at 400 nm (blank value), after 30 min. [2, 5]: 0.050
Absorbance at 400 nm (blank value), on reaction initiation ([2]; Table 2, no glucoamylase, pH 7.0, α-glucosidase 80 U/ml, β-glucosidase 10 U/ml): 0.050
Absorbance at 400 nm (blank value), after 10 min. [2, 6]: 0.051
Absorbance at 400 nm (blank value), after 20 min. [2, 6]: 0.051
Absorbance at 400 nm (blank value), after 30 min. [2, 6]: 0.051

O=[N+]([O-])c1ccc(O[C@@H]2O[C@H](CO)[C@@H](O[C@H]3O[C@H](CO)[C@@H](O[C@H]4O[C@H](CO)[C@@H](O[C@H]5O[C@H](CO)[C@@H](O[C@H]6O[C@@H]7COCO[C@H]7[C@H](O)[C@H]6O)[C@H](O)[C@H]5O)[C@H](O)[C@H]4O)[C@H](O)[C@H]3O)[C@H](O)[C@H]2O)c(Cl)c1 [Methylidene 2-chloro-4-nitrophenyl-β-maltopentaoside]
Solubility of substrate in the reagents in Example 3 [3]: not dissolved

CC1(C)OC[C@H]2O[C@H](O[C@H]3[C@H](O)[C@@H](O)[C@@H](O[C@H]4[C@H](O)[C@@H](O)[C@@H](O[C@H]5[C@H](O)[C@@H](O)[C@@H](O[C@H]6[C@H](O)[C@@H](O)[C@H](Oc7ccc([N+](=O)[O-])cc7Cl)O[C@@H]6CO)O[C@@H]5CO)O[C@@H]4CO)O[C@@H]3CO)[C@H](O)[C@@H](O)[C@@H]2O1 [Isopropylidene 2-chloro-4-nitrophenyl-β-maltopentaoside]
Solubility of substrate in the reagents in Example 3 [3]: not dissolved

O=[N+]([O-])c1ccc(O[C@@H]2O[C@H](CO)[C@@H](O[C@H]3O[C@H](CO)[C@@H](O[C@H]4O[C@H](CO)[C@@H](O[C@H]5O[C@H](CO)[C@@H](O[C@H]6O[C@H](CO)[C@@H](O)[C@H](O)[C@H]6O)[C@H](O)[C@H]5O)[C@H](O)[C@H]4O)[C@H](O)[C@H]3O)[C@H](O)[C@H]2O)c(Cl)c1 [compound 1, 2-chloro-4-nitrophenyl-β-maltopentaoside, reference compound]
Change in absorbance (α-amylase; glucoamylase added (10 U/ml)): 0.136 per minute
Absorbance at 400 nm (blank value), on reaction initiation [1]: 0.132
Absorbance at 400 nm (blank value), after 10 min. [1]: 0.162
Absorbance at 400 nm (blank value), after 20 min. [1]: 0.192
Absorbance at 400 nm (blank value), after 30 min. [1]: 0.223
Absorbance at 400 nm (blank value), on reaction initiation [2, 4]: 0.251
Absorbance at 400 nm (blank value), after 10 min. [2, 5]: 0.273
Absorbance at 400 nm (blank value), after 20 min. [2, 5]: 0.293
Absorbance at 400 nm (blank value), after 30 min. [2, 5]: 0.323

O=[N+]([O-])c1ccc(O[C@@H]2O[C@H](CO)[C@@H](O[C@H]3O[C@H](CO)[C@@H](O[C@H]4O[C@H](CO)[C@@H](O[C@H]5O[C@H](CO)[C@@H](O[C@H]6O[C@@H]7COC(c8ccccc8)O[C@H]7[C@H](O)[C@H]6O)[C@H](O)[C@H]5O)[C@H](O)[C@H]4O)[C@H](O)[C@H]3O)[C@H](O)[C@H]2O)c(Cl)c1 (stereo partly drawn) [Benzylidene 2-chloro-4-nitrophenyl-β-maltopentaoside]
Solubility of substrate in the reagents in Example 3 [3]: not dissolved
